# Laboratory results: patent US20060154243A1 (priority 2003, published 2006)
# Key:
# [1] = system: rabbit serum obtained by immunizing with SARS-CoV strain Frankfurt 1; type: binding
# [2] = system: sera SARS-green, SARS-yellow, 1a, 1b, 2, 6, 37, 62 and London; type: binding, human
# [3] = system: control serum Blood-bank (commercial negative donor pooled serum); type: binding, human
# [4] = system: control serum LUMC (pooled serum of ten healthy hospital workers); type: binding, human
sequence,measurement,setting,value
RMEDAMGQGQNSADP,Rabbit serum linear peptides,[1],0.1
same,Rabbit serum looped peptides,[1],0.5
same,"Recognition of the peptide by sera of individuals infected by SARS-CoV, form recognized",[2],only recognized in looped form
MTKLATTEELPDEFV,Rabbit serum linear peptides,[1],0.1
same,Rabbit serum looped peptides,[1],0.6
same,"Recognition of the peptide by sera of individuals infected by SARS-CoV, form recognized",[2],recognized in linear and in looped form
CICTVVQRCASNKPH,Rabbit serum linear peptides,[1],0.0
same,Rabbit serum looped peptides,[1],0.5
same,"Recognition of the peptide by sera of individuals infected by SARS-CoV, form recognized",[2],recognized in linear and in looped form
ELTLIDFYLCFLAFL,Rabbit serum linear peptides,[1],0.4
same,Rabbit serum looped peptides,[1],0.6
same,Control Serum Blood-Bank Looped peptides,[3],0.6
same,Control serum Blood-bank linear peptides,[3],0.7
same,Control serum LUMC linear peptides,[4],0.5
same,Control serum LUMC looped peptides,[4],0.7
ITRMEDAMGQGQNSA,Rabbit serum linear peptides,[1],0.1
same,Rabbit serum looped peptides,[1],0.4
same,"Recognition of the peptide by sera of individuals infected by SARS-CoV, form recognized",[2],only recognized in looped form
QTNVVPPALHLVDPQ,Rabbit serum linear peptides,[1],0.1
same,Rabbit serum looped peptides,[1],0.4
same,"Recognition of the peptide by sera of individuals infected by SARS-CoV, form recognized",[2],recognized in linear and in looped form
VQMTKLATTEELPDE,Rabbit serum linear peptides,[1],0.3
same,Rabbit serum looped peptides,[1],0.6
same,"Recognition of the peptide by sera of individuals infected by SARS-CoV, form recognized",[2],recognized in linear and in looped form
IDFYLCFLAFLLFLV,Rabbit serum linear peptides,[1],0.4
same,Rabbit serum looped peptides,[1],0.5
same,Control Serum Blood-Bank Looped peptides,[3],0.6
same,Control serum Blood-bank linear peptides,[3],0.9
same,Control serum LUMC linear peptides,[4],0.5
same,Control serum LUMC looped peptides,[4],0.7
FYLCFLAFLLFLVLI,Rabbit serum linear peptides,[1],0.3
same,Rabbit serum looped peptides,[1],0.6
same,Control Serum Blood-Bank Looped peptides,[3],0.7
same,Control serum Blood-bank linear peptides,[3],0.8
same,Control serum LUMC linear peptides,[4],0.4
same,Control serum LUMC looped peptides,[4],0.6
CSCICTVVQRCASNK,Rabbit serum linear peptides,[1],0.1
same,Rabbit serum looped peptides,[1],0.0
same,"Recognition of the peptide by sera of individuals infected by SARS-CoV, form recognized",[2],recognized in linear and in looped form
PALHLVDPQIQLTIT,Rabbit serum linear peptides,[1],1.3
same,Rabbit serum looped peptides,[1],0.4
same,"Recognition of the peptide by sera of individuals infected by SARS-CoV, form recognized",[2],recognized in linear and in looped form
LCFLAFLLFLVLIML,Rabbit serum linear peptides,[1],0.2
same,Rabbit serum looped peptides,[1],0.3
same,Control Serum Blood-Bank Looped peptides,[3],0.7
same,Control serum Blood-bank linear peptides,[3],0.7
same,Control serum LUMC linear peptides,[4],0.4
same,Control serum LUMC looped peptides,[4],0.4
LAFLLFLVLIMLIIF,Rabbit serum linear peptides,[1],0.4
same,Rabbit serum looped peptides,[1],1.1
same,Control Serum Blood-Bank Looped peptides,[3],0.8
same,Control serum Blood-bank linear peptides,[3],0.6
same,Control serum LUMC linear peptides,[4],0.3
same,Control serum LUMC looped peptides,[4],0.4
CFLAFLLFLVLIMLI,Rabbit serum linear peptides,[1],0.0
same,Rabbit serum looped peptides,[1],0.6
same,Control Serum Blood-Bank Looped peptides,[3],0.8
same,Control serum Blood-bank linear peptides,[3],0.6
same,Control serum LUMC linear peptides,[4],0.3
same,Control serum LUMC looped peptides,[4],0.4
QMTKLATTEELPDEF,Rabbit serum linear peptides,[1],0.1
same,Rabbit serum looped peptides,[1],0.6
same,"Recognition of the peptide by sera of individuals infected by SARS-CoV, form recognized",[2],recognized in linear and in looped form
MEDAMGQGQNSADPK,Rabbit serum linear peptides,[1],0.1
same,Rabbit serum looped peptides,[1],0.4
same,"Recognition of the peptide by sera of individuals infected by SARS-CoV, form recognized",[2],only recognized in looped form
ATTEELPDEFVVVTA,Rabbit serum linear peptides,[1],0.1
same,Rabbit serum looped peptides,[1],0.5
same,"Recognition of the peptide by sera of individuals infected by SARS-CoV, form recognized",[2],recognized in linear and in looped form
LATTEELPDEFVVVT,Rabbit serum linear peptides,[1],0.1
same,Rabbit serum looped peptides,[1],0.6
same,"Recognition of the peptide by sera of individuals infected by SARS-CoV, form recognized",[2],recognized in linear and in looped form
KLATTEELPDEFVVV,Rabbit serum linear peptides,[1],0.2
same,Rabbit serum looped peptides,[1],0.5
same,"Recognition of the peptide by sera of individuals infected by SARS-CoV, form recognized",[2],recognized in linear and in looped form
NQTNVVPPALHLVDP,Rabbit serum linear peptides,[1],0.1
same,Rabbit serum looped peptides,[1],0.4
same,"Recognition of the peptide by sera of individuals infected by SARS-CoV, form recognized",[2],recognized in linear and in looped form
VQRCASNKPHVLEDP,Rabbit serum linear peptides,[1],0.1
same,Rabbit serum looped peptides,[1],0.5
same,"Recognition of the peptide by sera of individuals infected by SARS-CoV, form recognized",[2],recognized in linear and in looped form
LFLVLIMLIIFWFSL,Rabbit serum linear peptides,[1],0.4
same,Rabbit serum looped peptides,[1],0.5
same,Control Serum Blood-Bank Looped peptides,[3],0.8
same,Control serum Blood-bank linear peptides,[3],0.8
same,Control serum LUMC linear peptides,[4],0.4
same,Control serum LUMC looped peptides,[4],0.4
FLAFLLFLVLIMLII,Rabbit serum linear peptides,[1],0.3
same,Rabbit serum looped peptides,[1],0.7
same,Control Serum Blood-Bank Looped peptides,[3],0.7
same,Control serum Blood-bank linear peptides,[3],0.7
same,Control serum LUMC linear peptides,[4],0.5
same,Control serum LUMC looped peptides,[4],0.4
LVLIMLIIFWFSLEI,Rabbit serum linear peptides,[1],0.4
same,Rabbit serum looped peptides,[1],0.6
same,Control Serum Blood-Bank Looped peptides,[3],0.7
same,Control serum Blood-bank linear peptides,[3],0.9
same,Control serum LUMC linear peptides,[4],0.8
same,Control serum LUMC looped peptides,[4],0.3
LTLIDFYLCFLAFLL,Rabbit serum linear peptides,[1],0.3
same,Rabbit serum looped peptides,[1],0.5
same,Control Serum Blood-Bank Looped peptides,[3],0.5
same,Control serum Blood-bank linear peptides,[3],0.9
same,Control serum LUMC linear peptides,[4],0.8
same,Control serum LUMC looped peptides,[4],0.7
YLCFLAFLLFLVLIM,Rabbit serum linear peptides,[1],0.3
same,Rabbit serum looped peptides,[1],0.3
same,Control Serum Blood-Bank Looped peptides,[3],0.6
same,Control serum Blood-bank linear peptides,[3],0.8
same,Control serum LUMC linear peptides,[4],0.4
same,Control serum LUMC looped peptides,[4],0.8
VLIMLIIFWFSLEIQ,Rabbit serum linear peptides,[1],0.4
same,Rabbit serum looped peptides,[1],0.2
same,Control Serum Blood-Bank Looped peptides,[3],0.7
same,Control serum Blood-bank linear peptides,[3],0.8
same,Control serum LUMC linear peptides,[4],0.7
same,Control serum LUMC looped peptides,[4],0.4
FLVLIMLIIFWFSLE,Rabbit serum linear peptides,[1],0.4
same,Rabbit serum looped peptides,[1],0.6
same,Control Serum Blood-Bank Looped peptides,[3],0.8
same,Control serum Blood-bank linear peptides,[3],0.9
same,Control serum LUMC linear peptides,[4],0.7
same,Control serum LUMC looped peptides,[4],0.7
AFLLFLVLIMLIIFW,Rabbit serum linear peptides,[1],0.5
same,Rabbit serum looped peptides,[1],1.0
same,Control Serum Blood-Bank Looped peptides,[3],0.8
same,Control serum Blood-bank linear peptides,[3],0.8
same,Control serum LUMC linear peptides,[4],0.4
same,Control serum LUMC looped peptides,[4],0.4
TLIDFYLCFLAFLLF,Rabbit serum linear peptides,[1],0.4
same,Rabbit serum looped peptides,[1],0.4
same,Control Serum Blood-Bank Looped peptides,[3],0.4
same,Control serum Blood-bank linear peptides,[3],0.7
same,Control serum LUMC linear peptides,[4],0.8
same,Control serum LUMC looped peptides,[4],0.8
FLLFLVLIMLIIFWF,Rabbit serum linear peptides,[1],0.5
same,Rabbit serum looped peptides,[1],0.7
same,Control Serum Blood-Bank Looped peptides,[3],0.6
same,Control serum Blood-bank linear peptides,[3],0.9
same,Control serum LUMC linear peptides,[4],0.3
same,Control serum LUMC looped peptides,[4],0.5
LIDFYLCFLAFLLFL,Rabbit serum linear peptides,[1],0.3
same,Rabbit serum looped peptides,[1],0.3
same,Control Serum Blood-Bank Looped peptides,[3],0.5
same,Control serum Blood-bank linear peptides,[3],0.7
same,Control serum LUMC linear peptides,[4],0.4
same,Control serum LUMC looped peptides,[4],0.7
NELTLIDFYLCFLAF,Rabbit serum linear peptides,[1],0.4
same,Rabbit serum looped peptides,[1],0.8
same,Control Serum Blood-Bank Looped peptides,[3],0.5
same,Control serum Blood-bank linear peptides,[3],0.6
same,Control serum LUMC linear peptides,[4],0.6
same,Control serum LUMC looped peptides,[4],0.9
LLFLVLIMLIIFWFS,Rabbit serum linear peptides,[1],0.5
same,Rabbit serum looped peptides,[1],0.6
same,Control Serum Blood-Bank Looped peptides,[3],0.9
same,Control serum Blood-bank linear peptides,[3],0.9
same,Control serum LUMC linear peptides,[4],0.4
same,Control serum LUMC looped peptides,[4],0.4
